ChEMBL document CHEMBL1132874, “Synthesis and structure-activity relationship of novel pyridyl ethers for the nicotinic acetylcholine receptor” (Bioorg Med Chem Lett, 2000)

Biological target: Neuronal acetylcholine receptor; alpha4/beta2 (Rattus norvegicus, UniProt P09483+P12390)
Assay: Evaluated for binding affinity towards nicotinic acetylcholine receptor alpha4-beta2
Format: protein-complex assay

Sequence of Neuronal acetylcholine receptor; alpha4/beta2 (P09483 whole entry): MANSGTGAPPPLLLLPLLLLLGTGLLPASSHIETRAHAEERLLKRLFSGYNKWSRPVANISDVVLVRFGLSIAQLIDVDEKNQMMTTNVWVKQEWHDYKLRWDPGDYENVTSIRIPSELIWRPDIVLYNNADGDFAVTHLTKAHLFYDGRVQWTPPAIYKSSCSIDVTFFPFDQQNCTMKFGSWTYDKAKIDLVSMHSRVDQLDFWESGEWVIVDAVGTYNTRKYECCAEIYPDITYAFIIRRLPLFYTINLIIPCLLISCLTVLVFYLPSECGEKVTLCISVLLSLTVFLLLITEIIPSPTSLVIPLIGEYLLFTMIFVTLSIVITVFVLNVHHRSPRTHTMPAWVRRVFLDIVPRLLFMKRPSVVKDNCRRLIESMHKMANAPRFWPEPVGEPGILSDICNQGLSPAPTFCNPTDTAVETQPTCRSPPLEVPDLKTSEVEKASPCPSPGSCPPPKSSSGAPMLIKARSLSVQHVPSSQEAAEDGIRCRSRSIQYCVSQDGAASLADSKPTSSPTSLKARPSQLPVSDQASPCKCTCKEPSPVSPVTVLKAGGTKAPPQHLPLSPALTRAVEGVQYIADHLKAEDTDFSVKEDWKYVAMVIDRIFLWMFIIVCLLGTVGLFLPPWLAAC
Sequence of Neuronal acetylcholine receptor; alpha4/beta2 (P12390 whole entry): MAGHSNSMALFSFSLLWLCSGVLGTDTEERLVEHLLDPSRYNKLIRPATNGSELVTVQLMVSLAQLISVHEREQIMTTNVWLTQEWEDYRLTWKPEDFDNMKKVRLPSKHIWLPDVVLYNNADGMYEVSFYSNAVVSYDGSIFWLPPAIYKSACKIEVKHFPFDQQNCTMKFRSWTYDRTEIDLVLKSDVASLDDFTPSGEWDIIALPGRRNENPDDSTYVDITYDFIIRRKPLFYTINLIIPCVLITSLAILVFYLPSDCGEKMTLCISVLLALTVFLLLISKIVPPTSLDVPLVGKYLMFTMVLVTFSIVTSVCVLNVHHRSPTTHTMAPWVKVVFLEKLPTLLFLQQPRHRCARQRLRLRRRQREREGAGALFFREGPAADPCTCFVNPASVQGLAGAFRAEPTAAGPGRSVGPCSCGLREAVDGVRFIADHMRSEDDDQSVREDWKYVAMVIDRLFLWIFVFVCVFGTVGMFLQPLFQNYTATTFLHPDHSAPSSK

SMILES | IC50
Clc1cccc(-c2cc(O[C@@H]3CCNC3)cnc2Cl)c1 | 103 nM
C#Cc1cncc(O[C@@H]2CCNC2)c1 | 62 nM
C=Cc1cc(O[C@@H]2CCNC2)cnc1Cl | 140 nM
Clc1cccc(-c2cncc(O[C@@H]3CCNC3)c2)c1 | 940 nM
CC(C)N1CCC(Oc2cccnc2)C1 (stereo not given) | > 10000 nM
N#Cc1ccc(-c2cncc(O[C@@H]3CCNC3)c2)cc1 | 544 nM
CCN1CCC(Oc2cccnc2)C1 (stereo not given) | > 10000 nM
C=Cc1cncc(O[C@@H]2CCNC2)c1 | 883 nM
c1ccc(-c2cncc(O[C@@H]3CCNC3)c2)cc1 | 1820 nM
Clc1ncc(O[C@@H]2CCNC2)cc1-c1ccccc1 | 75 nM
C#Cc1cc(O[C@@H]2CCNC2)cnc1Cl | 46 nM
Cc1cc(O[C@@H]2CCNC2)cnc1Cl | 64 nM
c1cncc(OC2CNC2)c1 | > 10000 nM
Clc1ncc(O[C@@H]2CCNC2)cc1-c1ccncc1 | 65 nM
c1cc(-c2cncc(O[C@@H]3CCNC3)c2)ccn1 | 571 nM
